This note sets out measurements from ChEMBL document CHEMBL3526052 (Drug Metab Dispos, 2013).

In series [1] the target is T1, Equilibrative nucleoside transporter 1 (Homo sapiens, UniProt Q99808).
T1 sequence (Q99808 whole entry): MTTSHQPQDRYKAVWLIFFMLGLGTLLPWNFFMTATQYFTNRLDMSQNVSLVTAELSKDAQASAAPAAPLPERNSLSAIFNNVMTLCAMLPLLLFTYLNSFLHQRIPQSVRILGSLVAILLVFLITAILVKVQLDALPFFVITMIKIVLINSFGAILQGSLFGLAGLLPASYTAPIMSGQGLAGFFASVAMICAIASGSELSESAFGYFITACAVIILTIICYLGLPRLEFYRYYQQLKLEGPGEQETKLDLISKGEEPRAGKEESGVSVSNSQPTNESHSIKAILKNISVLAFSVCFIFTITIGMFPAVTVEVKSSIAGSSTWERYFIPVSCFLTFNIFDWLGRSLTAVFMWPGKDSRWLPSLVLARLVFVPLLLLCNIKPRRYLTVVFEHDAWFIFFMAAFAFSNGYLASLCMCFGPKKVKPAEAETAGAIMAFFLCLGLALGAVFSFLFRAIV
In words: Binding affinity to recombinant human ENT1 expressed in Saccharomyces cerevisiae assessed as inhibition of [3H]-uridine transport after 15 mins by scintillation counting analysis. It counts as ADME.

The target in series [2] is T2, Equilibrative nucleoside transporter 2 (Homo sapiens, UniProt Q14542).
T2 sequence (Q14542 whole entry): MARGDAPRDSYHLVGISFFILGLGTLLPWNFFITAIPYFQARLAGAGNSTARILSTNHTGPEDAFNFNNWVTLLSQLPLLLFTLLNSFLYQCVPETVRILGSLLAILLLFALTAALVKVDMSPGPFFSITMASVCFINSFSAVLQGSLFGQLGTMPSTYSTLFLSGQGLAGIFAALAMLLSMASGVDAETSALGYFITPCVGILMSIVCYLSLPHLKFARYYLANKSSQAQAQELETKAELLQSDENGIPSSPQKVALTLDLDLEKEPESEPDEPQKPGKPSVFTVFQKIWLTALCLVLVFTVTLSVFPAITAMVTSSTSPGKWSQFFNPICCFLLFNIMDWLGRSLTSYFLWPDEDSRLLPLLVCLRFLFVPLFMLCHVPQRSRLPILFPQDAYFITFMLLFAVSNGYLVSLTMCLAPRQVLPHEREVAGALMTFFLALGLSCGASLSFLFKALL
Description: Binding affinity to recombinant human ENT2 expressed in Saccharomyces cerevisiae assessed as inhibition of [3H]-uridine transport after 15 mins by scintillation counting analysis. It counts as ADME. Particulars: for pKi: read-out: Ki(app).

In series [3] the target is T3, Sodium/nucleoside cotransporter 1 (Homo sapiens, UniProt O00337).
T3 sequence (O00337 whole entry): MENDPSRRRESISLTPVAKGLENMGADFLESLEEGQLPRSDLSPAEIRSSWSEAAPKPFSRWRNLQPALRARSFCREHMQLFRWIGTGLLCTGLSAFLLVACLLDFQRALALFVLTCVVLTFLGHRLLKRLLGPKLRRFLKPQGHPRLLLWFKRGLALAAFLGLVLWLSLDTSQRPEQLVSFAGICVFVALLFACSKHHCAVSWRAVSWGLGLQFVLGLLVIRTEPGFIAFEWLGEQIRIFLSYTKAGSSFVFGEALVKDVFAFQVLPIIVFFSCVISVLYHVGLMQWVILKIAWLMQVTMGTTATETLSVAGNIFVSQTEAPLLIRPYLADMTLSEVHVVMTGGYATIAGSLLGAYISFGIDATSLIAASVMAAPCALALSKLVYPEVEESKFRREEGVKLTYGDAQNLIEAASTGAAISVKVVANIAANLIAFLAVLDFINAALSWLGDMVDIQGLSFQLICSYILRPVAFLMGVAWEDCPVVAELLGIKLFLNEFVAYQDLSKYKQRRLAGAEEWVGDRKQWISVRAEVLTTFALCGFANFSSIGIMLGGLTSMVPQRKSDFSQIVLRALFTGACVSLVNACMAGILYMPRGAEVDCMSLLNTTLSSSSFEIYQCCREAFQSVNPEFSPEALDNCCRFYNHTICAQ
Description: Binding affinity to recombinant human CNT1 expressed in Saccharomyces cerevisiae assessed as inhibition of [3H]-uridine transport after 15 mins by scintillation counting analysis. It counts as ADME. Particulars: for pKi: read-out: Ki(app).

Series [4] concerns the target T4, Sodium/nucleoside cotransporter 2 (Homo sapiens, UniProt O43868).
T4 sequence (O43868 whole entry): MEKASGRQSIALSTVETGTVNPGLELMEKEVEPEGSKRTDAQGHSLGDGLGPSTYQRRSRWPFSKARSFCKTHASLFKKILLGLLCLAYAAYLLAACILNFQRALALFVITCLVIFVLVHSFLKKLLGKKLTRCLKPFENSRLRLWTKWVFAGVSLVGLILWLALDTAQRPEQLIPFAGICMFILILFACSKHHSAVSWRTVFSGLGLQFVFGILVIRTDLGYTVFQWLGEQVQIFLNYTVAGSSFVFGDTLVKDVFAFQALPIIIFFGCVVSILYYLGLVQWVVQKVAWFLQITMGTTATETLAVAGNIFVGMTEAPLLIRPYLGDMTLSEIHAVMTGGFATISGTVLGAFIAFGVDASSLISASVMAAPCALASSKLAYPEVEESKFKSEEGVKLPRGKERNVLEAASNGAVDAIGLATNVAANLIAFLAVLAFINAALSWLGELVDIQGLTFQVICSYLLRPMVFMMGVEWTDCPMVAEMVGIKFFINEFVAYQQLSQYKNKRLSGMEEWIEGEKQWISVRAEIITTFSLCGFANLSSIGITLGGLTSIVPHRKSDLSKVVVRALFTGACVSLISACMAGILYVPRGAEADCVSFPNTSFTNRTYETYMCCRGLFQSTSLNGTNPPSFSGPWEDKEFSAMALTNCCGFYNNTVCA
Description: Binding affinity to recombinant human CNT2 expressed in Saccharomyces cerevisiae assessed as inhibition of [3H]-uridine transport after 15 mins by scintillation counting analysis. It counts as ADME. The following applies: for pKi: read-out: Ki(app).

Series [5] deals with T5, Solute carrier family 28 member 3 (Homo sapiens, UniProt Q9HAS3).
T5 sequence (Q9HAS3 whole entry): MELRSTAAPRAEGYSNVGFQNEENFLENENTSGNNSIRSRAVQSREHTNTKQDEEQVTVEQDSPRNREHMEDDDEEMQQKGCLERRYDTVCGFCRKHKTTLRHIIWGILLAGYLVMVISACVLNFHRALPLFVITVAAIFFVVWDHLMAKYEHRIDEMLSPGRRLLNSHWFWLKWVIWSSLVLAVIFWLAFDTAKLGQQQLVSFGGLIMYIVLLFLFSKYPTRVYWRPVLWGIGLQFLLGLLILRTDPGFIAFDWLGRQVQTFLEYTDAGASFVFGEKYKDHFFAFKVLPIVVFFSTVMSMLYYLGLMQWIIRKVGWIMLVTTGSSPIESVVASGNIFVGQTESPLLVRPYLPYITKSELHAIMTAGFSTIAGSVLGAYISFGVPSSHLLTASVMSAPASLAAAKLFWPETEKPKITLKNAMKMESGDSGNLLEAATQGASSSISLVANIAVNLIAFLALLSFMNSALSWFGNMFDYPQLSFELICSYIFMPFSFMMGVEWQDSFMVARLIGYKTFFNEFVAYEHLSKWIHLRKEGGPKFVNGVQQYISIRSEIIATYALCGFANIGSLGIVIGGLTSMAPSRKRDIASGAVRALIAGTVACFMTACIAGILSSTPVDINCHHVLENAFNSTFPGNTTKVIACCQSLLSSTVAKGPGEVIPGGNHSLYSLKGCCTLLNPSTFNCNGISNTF
In words: Binding affinity to recombinant human CNT3 expressed in Saccharomyces cerevisiae assessed as inhibition of [3H]-uridine transport after 5 mins by scintillation counting analysis. Particulars: for pKi: read-out: Ki(app). It counts as ADME.

A short description of series [6]: Tmax in CD-1 mouse brain at 60 mg/kg, iv administered as bolus dose in absence of ENT1 inhibitor NBMPR-P. It is filed as ADME, organism-based. Also noted: dose 60 mg/kg, route intravenous.
Series [7] is described as follows: Tmax in CD-1 mouse brain at 60 mg/kg, iv administered as bolus dose in presence of ENT1 inhibitor NBMPR-P. It counts as ADME, organism-based. Also noted: dose 60 mg/kg, route intravenous.
Series [8] is described as follows: Cmax in CD-1 mouse brain at 60 mg/kg, iv administered as bolus dose in absence of ENT1 inhibitor NBMPR-P. It counts as ADME, organism-based. Also noted: dose 60 mg/kg, route intravenous.
Series [9] can be described thus: Cmax in CD-1 mouse brain at 60 mg/kg, iv administered as bolus dose in presence of ENT1 inhibitor NBMPR-P. Also noted: dose 60 mg/kg, route intravenous. It counts as ADME, organism-based.
Series [10] relates to Brain. Description: AUC (0 to 4 hrs) in CD-1 mouse brain at 60 mg/kg, iv administered as bolus dose in absence of ENT1 inhibitor NBMPR-P. It is filed as ADME, organism-based. Also noted: time < 4 hr, dose 60 mg/kg, route intravenous. The following applies: in vivo.
Series [11] deals with Brain. In words: AUC (0 to 4 hrs) in CD-1 mouse brain at 60 mg/kg, iv administered as bolus dose in presence of ENT1 inhibitor NBMPR-P. Also noted: time < 4 hr, dose 60 mg/kg, route intravenous. Particulars: in vivo. It counts as ADME, organism-based.
Series [12] is described as follows: Apparent volume of distribution at steady state in CD-1 mouse at 60 mg/kg, iv administered as bolus dose in absence of ENT1 inhibitor NBMPR-P. The following applies: in vivo, read-out: Vdss(app). Also noted: dose 60 mg/kg, route intravenous. It is filed as ADME, organism-based.
A short description of series [13]: Apparent volume of distribution at steady state in CD-1 mouse at 60 mg/kg, iv administered as bolus dose in presence of ENT1 inhibitor NBMPR-P. It is filed as ADME, organism-based. Also noted: dose 60 mg/kg, route intravenous. The following applies: in vivo, read-out: Vdss(app).
Series [14] in a line: Elimination half life in CD-1 mouse at 60 mg/kg, iv administered as bolus dose in absence of ENT1 inhibitor NBMPR-P. It is filed as ADME, organism-based. Also noted: dose 60 mg/kg, route intravenous. Particulars: in vivo, read-out: beta t1/2 (converted).
Series [15] in a line: Elimination half life in CD-1 mouse at 60 mg/kg, iv administered as bolus dose in presence of ENT1 inhibitor NBMPR-P. It is filed as ADME, organism-based. Also noted: dose 60 mg/kg, route intravenous. The following applies: in vivo, read-out: beta t1/2 (converted).
Series [16] is described as follows: AUC (0 to infinity) in CD-1 mouse at 60 mg/kg, iv administered as bolus dose in absence of ENT1 inhibitor NBMPR-P. It counts as ADME, organism-based. Also noted: time infinity, dose 60 mg/kg, route intravenous. Particulars: plasma.
Series [17] can be described thus: AUC (0 to infinity) in CD-1 mouse at 60 mg/kg, iv administered as bolus dose in presence of ENT1 inhibitor NBMPR-P. Particulars: plasma. It counts as ADME, organism-based. Also noted: time infinity, dose 60 mg/kg, route intravenous.

pIC50, pKi: −log10 of the molar value.

As to `O=c1ccn([C@@H]2O[C@H](CO)[C@@H](O)[C@H]2O)c(=O)[nH]1` [URIDINE], the negative logarithm of the IC50 (pIC50) in series [1] is 4.28; in series [2], 3.63; in series [3], 5.24; in series [4], 4.49; in series [5], 5.27. Also, the negative logarithm of the Ki (pKi) in series [1] (read-out: Ki(app)) was 4.29; in [2] it was 3.62; in series [3] it was 5.28; in series [4] it was 4.51; in [5], 5.47.

Consider `Nc1nc(F)nc2c1ncn2[C@@H]1O[C@H](CO)[C@@H](O)[C@@H]1O` [FLUDARABINE], for which the Tmax in series [6] is 0.88 h; in [7], 1.63 h. The highest concentration (Cmax) in series [8] amounted to 6050 ng/g; in series [9] it was 801 ng/g. In addition, the AUC in the series on Brain [10] was 11300 ng·h/g; in the series with Brain [11], 2490 ng·h/g. Besides, the Vd came to 1.6 L/kg in series [12] and 2.6 L/kg in series [13]. The figures for the half-life in [14] and in [15] were 1.7 h and 2.2 h, respectively. Besides, the AUC(0-inf) is 39600 ng·h/mL in series [16] and 65700 ng·h/mL in [17].

For the compound `Nc1ncnc2c1ncn2[C@@H]1O[C@H](CO)[C@@H](O)[C@H]1O` [ADENOSINE], the pIC50 was 3.97 in [2], 5.26 in [3], 5.26 in series [4] and 5.48 in [5]. Further, the negative-log Ki (pKi) is 3.97 in series [2], 5.74 in [3], 5.28 in series [4] and 5.68 in series [5].

In general, pIC50 refers to −log10 of the IC50, conventionally taken in molar units. Broadly, the pKi is the negative decadic logarithm of the Ki, by convention in mol/L. What is called Tmax is the time at which the peak concentration occurs. As a reminder, the Cmax is the highest concentration seen after dosing. In general, AUC(0-inf) refers to total exposure, with the tail of the curve extrapolated.
